For one test, the target named is T1, human FSH receptor (Homo sapiens, UniProt P23945).
T1 construct: expressed in transfected cells; host or cells: CHO (Chinese Hamster Ovary) cells, stably transfected, cotransfected with CRE-luciferase reporter
T1 sequence (P23945 18-695): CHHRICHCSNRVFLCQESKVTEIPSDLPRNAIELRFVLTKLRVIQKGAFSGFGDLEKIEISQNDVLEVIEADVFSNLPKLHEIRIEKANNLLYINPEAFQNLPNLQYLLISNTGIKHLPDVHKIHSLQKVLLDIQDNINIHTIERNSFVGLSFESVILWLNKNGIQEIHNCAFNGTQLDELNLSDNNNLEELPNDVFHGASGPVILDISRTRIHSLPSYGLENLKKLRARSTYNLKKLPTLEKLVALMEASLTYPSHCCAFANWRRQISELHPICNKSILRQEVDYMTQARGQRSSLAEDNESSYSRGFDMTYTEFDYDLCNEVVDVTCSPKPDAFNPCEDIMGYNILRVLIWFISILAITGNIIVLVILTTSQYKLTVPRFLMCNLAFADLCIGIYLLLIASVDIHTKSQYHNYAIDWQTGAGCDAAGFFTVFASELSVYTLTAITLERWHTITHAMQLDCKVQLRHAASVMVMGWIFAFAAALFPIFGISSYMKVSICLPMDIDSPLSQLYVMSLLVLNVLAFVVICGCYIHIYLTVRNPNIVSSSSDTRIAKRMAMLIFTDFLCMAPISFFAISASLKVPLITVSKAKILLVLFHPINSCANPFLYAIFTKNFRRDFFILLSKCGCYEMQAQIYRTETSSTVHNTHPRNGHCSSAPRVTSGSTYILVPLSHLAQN
Put plainly: Agonistic activity at the human FSH receptor expressed in CHO cells (CRE-luciferase reporter). Particulars: CHO cells stably transfected with human FSH receptor and CRE/luciferase reporter; 4 hours incubation; pEC50 is -log EC50. It is filed as cell-based. The text has this:
The term EC50 means the concentration of the test compound that elicits half-maximal (50%) stimulation compared to the compound's maximally attainable effect. pEC50 is the negative log of EC50. The values can be determined e.g. in a cell line transfected with a FSH receptor gene and cotransfected with a cAMP responsive element/promoter directing the expression of a reporter gene. For the determination a software program such as MathIQ (version 2.0, ID Business Solutions Limited) can be used.
Agonistic activity of the compounds at the human FSH receptor was determined in Chinese Hamster Ovary (CHO) cells stably transfected with the human FSH receptor and cotransfected with a cAMP responsive element (CRE)/promotor directing the expression of a firefly luciferase reporter gene. Binding of the compounds to the Gs protein-coupled FSH receptor will result in an increase of cAMP, which in turn will induce an increased transactivation of the luciferase reporter. Cells (7,500 cells/well of a 384 well plate) were incubated in Dulbecco' minimal essential F12 modified medium (Invitrogen), supplemented with 1 μg/ml bovine insulin, 5 μg/ml human apo-transferrin, 80 U/ml penicillin G and 80 μg/ml streptomycin with the test compounds (concentration between 0.0316 nM and 10.0 μM) in duplicate in a humidified atmosphere (95%) at 5-7% CO2 and 37° C. The final concentration of DMSO was 1%. After 4 hours of incubation, plates were allowed to adjust to room temperature for 1 hour. Then, Luclite (PerkinElmer) solution was added to the wells and cells were allowed to lyse for at least 1 hour at room temperature. Subsequently, luciferase activity was measured in a luminescence counter. The signal is expressed as counts per second (cps). The EC50 (concentration of the test compound that elicits half-maximal (50%) luciferase stimulation compared to the compound's maximally attainable effect) and efficacy values (maximal effect of the test compound as percentage of the maximal effect of recombinant human FSH) of the compounds were determined using the software program MathIQ (version 2.0, ID Business Solutions Limited). pEC50 data (pEC50 is −log EC50) are indicated at the synthesis examples.
(In general: A reporter such as luciferase makes a cellular process visible.)
Regarding `COc1cc2c(cc1-c1cccnc1)-c1c(-c3cncs3)c3c(n1CC2)C(=O)N(C(C)(C)C)CCCC3` [Compound 11j, 9-tert-butyl-3-methoxy-2-pyridin-3-yl-14-(1,3-thiazol-5-yl)-5,6,10,11,12,13-hexahydroazocino[4′,3′:4,5]pyrrolo[2,1-a]isoquinolin-8(9H)-one], the “hFSHRago (CHO luc) pEC50” value is listed as 8.51. On the same count and under the same terms, the same measure for `COc1cc2c(cc1-c1ccn(C)n1)-c1c(-c3cccs3)c3c(n1CC2)C(=O)N(C(C)(C)C)CCC3` [Compound 4h]: 7.19.

The same test, now with this note: CHO cells stably transfected with human FSH receptor and CRE/luciferase reporter; 4 hours incubation; pEC50 is -log EC50; read-out: hFSHRago (CHO luc) pEC50 (converted).
Regarding `C=CCCNC(=O)c1cc2c(cc1OC)CCn1c3c(c(-c4cccs4)c1-2)CCCCN(C(C)(C)C)C3=O` [Compound 26c9, 9-tert-butyl-2-(4-butenylaminocarbonyl)-3-methoxy-14-(thiophen-2-yl)-5,6,10,11,12,13-hexahydroazocino[4′,3′:4,5]pyrrolo[2,1-a]isoquinolin-8(9H)-one], the EC50 is 0.468 nM. Still for that read-out and setting: the same measure for `COc1cc2c(cc1-c1cccnc1)-c1c(-c3cccs3)c3c(n1CC2)C(=O)N(C(C)(C)C)CCC3` [Compound 4g, 9-tert-butyl-2-(pyridin-3-yl)-3-methoxy-13-(2-thienyl)-5,6,9,10,11,12-hexahydro-8H-azepino[4′,3′:4,5]pyrrolo[2,1-a]isoquinolin-8-one]: 4.17 nM.

For `COc1cc2c(cc1OC(C)C)-c1c(-c3ccc(F)cc3)c3c(n1CC2)C(=O)N(C(C)(C)C)CCOC3` [Compound 18g], the EC50 was 20 nM. On the same count and under the same terms, the same measure for `COc1cc2c(cc1-c1cccnc1)-c1c(-c3cncs3)c3c(n1CC2)C(=O)N(C(C)(C)C)CCCC3` [Compound 17k, 9-tert-butyl-3-methoxy-2-pyridin-3-yl-14-(1,3-thiazol-5-yl)-5,6,10,11,12,13-hexahydroazocino[4′,3′:4,5]pyrrolo[2,1-a]isoquinolin-8(9H)-one]: 0.355 nM. Same read-out and setting: in the case of `COc1cc2c(cc1C(=O)CC[C@@H](O)CO)-c1c(-c3cccs3)c3c(n1CC2)C(=O)N(C(C)(C)C)CCCC3` [Compound 28b, (R)-9-tert-butyl-2-(4,5-dihydroxypentanoyl)-3-methoxy-14-(thiophen-2-yl)-5,6,10,11,12,13-hexahydroazocino[4′,3′:4,5]pyrrolo[2,1-a]isoquinolin-8(9H)-one] it was 2.63 nM; in that of `COc1cc2c(cc1NC(=O)C(C)C)-c1c(-c3cccs3)c3c(n1CC2)C(=O)N(C(C)(C)C)CCC3` [Compound 3f, 9-tert-butyl-2-isobutyramido-3-methoxy-13-(2-thienyl)-5,6,9,10,11,12-hexahydro-8H-azepino[4′,3′:4,5]pyrrolo[2,1-a]isoquinolin-8-one], 126 nM; in that of `COc1cc2c(cc1-c1cccnc1)-c1c(-c3cccnc3)c3c(n1CC2)C(=O)N(C(C)(C)C)CCC3` [Compound 13e, 9-tert-butyl-2,13-di-(pyridin3-yl)-3-methoxy-5,6,9,10,11,12-hexahydro-8H-azepino[4′,3′:4,5]pyrrolo[2,1-a]isoquinolin-8-one], 42.7 nM. Regarding `COc1cc2c(cc1-c1ncco1)-c1c(-c3cncs3)c3c(n1CC2)C(=O)N(C(C)(C)C)CCCC3` [Compound 17j, 9-tert-butyl-3-methoxy-2-(1,3-oxazol-2-yl)-14-(1,3-thiazol-5-yl)-5,6,10,11,12,13-hexahydroazocino[4′,3′:4,5]pyrrolo[2,1-a]isoquinolin-8(9H)-one], the EC50 was 0.977 nM. On the same count and under the same terms, the same measure for `COc1cc2c(cc1-c1cccnc1)-c1c(-c3cncs3)c3c(n1CC2)C(=O)N(C(C)(C)C)CCCOC3` [Compound 8f, 9-tert-butyl-3-methoxy-2-pyridin-3-yl-15-(1,3-thiazol-5-yl)-5,6,9,10,11,12-hexahydro[1,5]oxazonino[8′,7′:4,5]pyrrolo[2,1-a]isoquinolin-8(14H)-one]: 14.1 nM; for `COc1cc2c(cc1C(=O)N(C)CCO)-c1c(-c3cccs3)c3c(n1CC2)C(=O)N(C(C)(C)C)CCCC3` [Compound 26c8, 9-tert-butyl-2-(N-2-hydroxyethyl,N-methylaminocarbonyl)-3-methoxy-14-(thiophen-2-yl)-5,6,10,11,12,13-hexahydroazocino[4′,3′:4,5]pyrrolo[2,1-a]isoquinolin-8(9H)-one]: 5.37 nM. Regarding `COc1cc2c(cc1OC(C)C)-c1c(-c3cccs3)c3c(n1CC2)C(=O)N(C(C)C)CCNC3` [Compound 14e, 9-isopropyl-3-methoxy-2-isopropoxy-14-(2-thienyl)-5,6,10,11,12,13-hexahydro[1,4]diazocino[6′,7′:4,5]pyrrolo[2,1-a]isoquinolin-8(9H)-one], the EC50 is 93.3 nM. On the same count and under the same terms, the same measure for `COc1cc2c(cc1-c1cccnc1)-c1c(-c3ncco3)c3c(n1CC2)C(=O)N(C(C)(C)C)CCC3` [Compound 13f]: 15.8 nM. The same measure, in the same setting: the same measure for `COc1cc2c(cc1Br)-c1c(-c3cncs3)c3c(n1CC2)C(=O)N(C(C)(C)C)CCCC3` [Compound 17i, 9-tert-butyl-3-methoxy-2-bromo-14-(1,3-thiazol-5-yl)-5,6,10,11,12,13-hexahydroazocino[4′,3′:4,5]pyrrolo[2,1-a]isoquinolin-8(9H)-one]: 4.68 nM; for `CCn1nnc(-c2cc3c(cc2OC)CCn2c4c(c(-c5cccs5)c2-3)CCCN(C(C)(C)C)C4=O)n1` [Compound 3e, 9-tert-butyl-2-(2-ethyl-2H-tetrazol-5-yl)-3-methoxy-13-(2-thienyl)-5,6,9,10,11,12-hexahydro-8H-azepino[4′,3′:4,5]pyrrolo[2,1-a]isoquinolin-8-one]: 36.3 nM. The same measure, in the same setting: in the case of `COc1cc2c(cc1-c1cccnc1)-c1c(-c3cccs3)c3c(n1CC2)C(=O)N(C(C)C)CCN(C(=O)C(C)C)C3` [Compound 10w, 9-isopropyl-3-methoxy-12-isobutyryl-14-(2-thienyl)-2-pyridin-3-yl-5,6,10,11,12,13-hexahydro[1,4]diazocino[6′,7′:4,5]pyrrolo[2,1-a]isoquinolin-8(9H)-one] it was 759 nM; in that of `COc1cc2c(cc1[N+](=O)[O-])-c1c(-c3cccs3)c3c(n1CC2)C(=O)N(C(C)(C)C)CCC3` [Compound 2h, 9-tert-butyl-2-nitro-3-methoxy-13-(2-thienyl)-5,6,9,10,11,12-hexahydro-8H-azepino[4′,3′:4,5]pyrrolo[2,1-a]isoquinolin-8-one], 34.7 nM. For the compound `COc1cc2c(cc1F)-c1c(-c3cccs3)c3c(n1CC2)C(=O)N(C(C)(C)C)CCCC3` [Compound 27c, 9-tert-butyl-2-fluoro-3-methoxy-14-(thiophen-2-yl)-5,6,10,11,12,13-hexahydroazocino[4′,3′:4,5]pyrrolo[2,1-a]isoquinolin-8(9H)-one], the EC50 was 30.2 nM. With `COc1cc2c(cc1C(=O)NCCN1CCOCC1)-c1c(-c3cccs3)c3c(n1CC2)C(=O)N(C(C)(C)C)CCCC3` [Compound 26c1, 9-tert-butyl-3-methoxy-N^2-(2-morpholinoethyl)-14-(thiophen-2-yl)-5,6,10,11,12,13-hexahydroazocino[4′,3′:4,5]pyrrolo[2,1-a]isoquinolin-8(9H)-one-2-carboxamide], the EC50 is 1.78 nM. Consider `COc1cc2c(cc1-n1cc(C[C@@H](O)CO)nn1)-c1c(-c3cccs3)c3c(n1CC2)C(=O)N(C(C)(C)C)CCCC3` [Compound 20g, (R)-9-tert-butyl-14-(thien-2-yl)-2-(4-(2,3-dihydroxypropyl)-1H-1,2,3-triazol-1-yl)-3-methoxy-5,6,10,11,12,13-hexahydroazocino[4′,3′:4,5]pyrrolo[2,1-a]isoquinolin-8(9H)-one], for which the EC50 was 3.24 nM.

For the origin of these results see US8431564B2 (Merck Sharp & Dohme B.V., priority 2009, dated 2013).
